Earlier results in PMC4533831 (Molecular pharmaceutics, 2015).

Test system: IGF2R
Conditions: read-out: relative binding affinity IC50; affinity to IGF2R

O=C[C@@H](O)[C@@H](O)[C@H](O)[C@H](O)COP(=O)(O)O [M6P, mannose-6-phosphate]
IC50: 23 µM
